From patent US6696498B2, “2-cyclopenten-1-one and its derivatives as inhibitors of the NF-kB factor” (Consiglio Nazionale Della Richerche, priority 1996, dated 2004)

What was measured:
[1] = tested on: HSF (Heat Shock Transcription Factor); assay: HSF activation in TPA-stimulated Jurkat cells, EMSA of whole-cell extracts; assay type: cell-based, human; conditions: then TPA 25 ng/ml, extracts after 3 hours; for activation of HSF (specificity): 500 uM for 1 hour, FIG. 1D
Experimental: (§1) The cells were prepared according to the method described in C. Amici et al. (Cancer Research 55, 4452-4457, 1995).
(§2) The cells were treated with 2-cyclopenten-1-one at different concentrations (125-1000 μM) for 1 hour and then were stimulated with TPA (25 ng/ml).
(§3) After 3 hours the whole-cell extracts were prepared and subjected to EMSA (Electrophoretic Mobility Shift Assay) as described for NF-kB in U. Zabel et al. (J. Biol. Chem. 266: 242, 1991) and HSF in C. Amici et al. (Cancer Res. 55: 4452, 1995), to determine NF-kB and HSF activation respectively.
The positions of the complex HSF-DNA (HSF), the HSF-DNA constitutive activity (CHBA) and the proteins-DNA non-specific interactions (ns) are indicated in FIG. 1B. The line “econtrol” indicates the non-TPA-stimulated cells as a control of non-activated NF-kB.
(§4) The cells were treated for 1 hour with the same concentration (500 uM) of: 2-cyclopenten-1-one, cyclopentanone or cyclopentene, and then were stimulated with TPA (25 ng/ml). C represents the non-TPA-stimulated control. After 3 hours the whole-cell extracts were prepared and subjected to EMSA to verify the activation of NF-kB (FIG. 1C) and of HSF (FIG. 1D) respectively.

[2] = biological target: T1, NF-kB (Homo sapiens, UniProt P19838+Q04206); assay: TPA-induced NF-kB activation in Jurkat cells, EMSA of whole-cell extracts; assay type: cell-based; conditions: then TPA 25 ng/ml, extracts after 3 hours; for inhibition of TPA-induced NF-kB activation (specificity): 500 uM for 1 hour, FIG. 1C
T1 construct: endogenous in cells; host or cells: Jurkat (human T lymphoid cell line)
T1 sequence (P19838 1-433 limits assumed): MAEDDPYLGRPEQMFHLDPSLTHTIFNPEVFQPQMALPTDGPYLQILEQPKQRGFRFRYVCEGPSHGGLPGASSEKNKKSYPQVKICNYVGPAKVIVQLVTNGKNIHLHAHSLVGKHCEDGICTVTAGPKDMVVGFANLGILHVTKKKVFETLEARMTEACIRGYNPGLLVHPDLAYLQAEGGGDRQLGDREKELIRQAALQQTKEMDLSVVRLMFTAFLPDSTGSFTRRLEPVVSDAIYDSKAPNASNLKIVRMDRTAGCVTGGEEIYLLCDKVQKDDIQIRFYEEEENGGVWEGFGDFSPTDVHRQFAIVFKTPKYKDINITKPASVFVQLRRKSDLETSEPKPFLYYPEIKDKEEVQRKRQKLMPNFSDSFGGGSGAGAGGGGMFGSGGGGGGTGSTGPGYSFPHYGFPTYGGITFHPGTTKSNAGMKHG
T1 sequence (Q04206 whole entry): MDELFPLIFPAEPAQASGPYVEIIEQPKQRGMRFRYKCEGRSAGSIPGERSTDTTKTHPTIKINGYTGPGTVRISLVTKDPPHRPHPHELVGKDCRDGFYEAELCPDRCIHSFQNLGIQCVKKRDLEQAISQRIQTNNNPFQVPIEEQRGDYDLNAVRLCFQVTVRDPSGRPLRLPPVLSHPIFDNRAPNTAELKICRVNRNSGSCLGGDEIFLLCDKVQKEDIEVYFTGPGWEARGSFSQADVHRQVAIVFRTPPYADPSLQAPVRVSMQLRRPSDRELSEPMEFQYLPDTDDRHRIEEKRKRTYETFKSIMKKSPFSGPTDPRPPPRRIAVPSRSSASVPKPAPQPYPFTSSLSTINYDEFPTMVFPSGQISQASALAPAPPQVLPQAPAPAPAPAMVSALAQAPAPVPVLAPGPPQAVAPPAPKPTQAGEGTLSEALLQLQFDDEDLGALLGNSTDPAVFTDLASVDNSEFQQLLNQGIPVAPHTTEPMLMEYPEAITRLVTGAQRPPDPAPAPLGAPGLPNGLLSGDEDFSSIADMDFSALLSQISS
Description: (§5) Inhibition tests have been carried out in type T lymphoid human cells (Jurkat cell line), as well as in other human cell lines. NF-kB activation was stimulated with 12-o-tetradecanoyl-phorbol-13-acetate (TPA). 2-Cyclopenten-1-one was also effective in inhibiting NF-kB activation after other types of stimulation, including stimulation by tumor necrosis factor alpha or viral infection, and in different types of human cells (data not shown).
The effect of the treatment with 2-cyclopenten-1-one on NF-kB activation by TPA has been tested in Jurkat cells by using the procedures described hereinbelow and shown in FIG. 1.
as §1, §2, §3, §4

[3] = biological target: T1, NF-kB; assay: NF-kB activation after other types of stimulation (tumor necrosis factor alpha or viral infection) in different human cells; assay type: cell-based; conditions: stimulation by tumor necrosis factor alpha or viral infection, data not shown
Description: as §5

SMILES | activation of HSF (specificity) [1] | inhibition of TPA-induced NF-kB activation (specificity) [2] | inhibition of NF-kB activation after other types of stimulation [3] | concentration from which activation of HSF is evident ([1]; 125-1000 μM for 1 hour, FIG. 1B) [µM] | inhibition of NF-kB activation by TPA ([2]; 125 uM for 1 hour, FIG. 1A) | NF-kB band (NF-kB-DNA complex) in EMSA ([2]; 500 um for 1 hour, FIG. 1A)
O=C1CCCC1 [cyclopentanone, reference compound] | do not activate | do not inhibit |  |  |  | 
C1=CCCC1 [cyclopentene, reference compound] | do not activate | do not inhibit |  |  |  | 
O=C1C=CCC1 [2-cyclopenten-1-one] |  | inhibits | effective | ≥ 125 | able to inhibit | absent
